Like-named read-outs stand apart in the source and are kept apart here. Residues, ends and D or L forms follow the SMILES beside them.

A word on the Ki: it is the equilibrium dissociation constant of an inhibitor or competing ligand from its target.

The test deals with Sushi domains (SD1/2) protein. The test is described as follows: Fluorescence polarization (FP) competition assay with AJAP-1probe, calculated Ki. In kind it is binding. The method in brief: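 Ki values were derived from IC50s (sigmoidal fits, ≥ triplicate), with probe Kd obtained by saturation titration of SD1/2. Peptides displaced a 25 nM TAMRA-labelled probe; polarization read at 530/580 nm in 1% BSA-containing PBS, pH 7.4, room temperature.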

The mark [1] stands for this setting: Table 14, CPPs tagged peptides, read-out: Ki (nM) mean ± SEM.
The mark [2] stands for this setting: Table 3, SPOT hit validation and previously reported peptides, read-out: Ki (nM) mean ± SEM.
[3] abbreviates: purified peptides, read-out: Ki.
[4] abbreviates: CPP tagged peptides overview, SD1/2 binding affinity, mean ± SEM, n ≥ 3, read-out: Ki.

As to `CC[C@H](C)[C@H](NC(=O)[C@H](Cc1ccc(O)cc1)NC(=O)[C@H](Cc1c[nH]c2ccccc12)NC(=O)[C@@H]1CCCN1C(C)=O)C(=O)N[C@H](C(=O)N[C@@H](Cc1c[nH]c2ccccc12)C(=O)NCC(=O)N1CCC[C@H]1C(=O)N[C@H](C(=O)N[C@H](C(=O)N[C@@H](CO)C(=O)N[C@@H](CCCNC(=N)N)C(=O)N[C@@H](CCC(=O)O)C(=O)N[C@@H](CC(=O)O)C(N)=O)C(C)C)[C@@H](C)O)C(C)C` [PWYIVWGPTVSRED] (Ac-PWYIVWGPTVSRED-NH2), for the setting “Table 12, deep mutational scanning validation variants of PIANPWT, read-out: Ki (nM) mean ± SEM”, the Ki is 336 ± 2 nM.

Consider `CC[C@H](C)[C@H](NC(=O)[C@H](Cc1c[nH]c2ccccc12)NC(=O)[C@H](CC(=O)O)NC(=O)[C@H](CC(=O)O)NC(=O)[C@H](CC(=O)O)NC(=O)[C@H](CCC(=O)O)NC(=O)[C@H](CCCNC(=N)N)NC(=O)[C@H](CCCNC(=N)N)NC(=O)[C@H](CCCNC(=N)N)NC(=O)[C@H](CCCNC(=N)N)NC(C)=O)C(=O)N[C@@H](CC(=O)O)C(=O)N[C@@H](Cc1c[nH]c2ccccc12)C(=O)N[C@@H](Cc1ccc(O)cc1)C(=O)N[C@@H](CC(=O)O)C(=O)N[C@@H](CO)C(=O)N[C@@H](CC(=O)O)C(=O)N[C@@H](CC(=O)O)C(=O)N[C@@H](CC(=O)O)C(N)=O` [Peptide 4R-16] (Ac-RRRREDDDWIDWYDSDDD-NH2), for which the Ki under setting [1] is 20.6 ± 0.2 nM.

As for `CC[C@H](C)[C@H](NC(=O)[C@H](Cc1c[nH]c2ccccc12)NC(=O)[C@H](CC(=O)O)NC(=O)[C@H](CC(=O)O)NC(=O)[C@H](CC(=O)O)NC(=O)[C@H](CCC(=O)O)NC(=O)[C@H](CCCNC(=N)N)NC(=O)[C@H](CCCNC(=N)N)NC(=O)[C@H](CCCNC(=N)N)NC(=O)[C@H](CCCNC(=N)N)NC(C)=O)C(=O)N[C@@H](CC(=O)O)C(=O)N[C@@H](Cc1c[nH]c2ccccc12)C(=O)NCC(=O)N1CCC[C@H]1C(=O)N[C@H](C(=O)N[C@@H](CO)C(=O)N[C@@H](CC(=O)O)C(=O)N[C@@H](CC(=O)O)C(=O)N[C@@H](CC(=O)O)C(N)=O)[C@@H](C)O` [Peptide 4R-17] (Ac-RRRREDDDWIDWGPTSDDD-NH2), the Ki under setting [1] was 15 ± 1 nM.

As to `CC(=O)N[C@@H](CC(=O)O)C(=O)N[C@@H](CO)C(=O)N[C@@H](C)C(=O)N[C@@H](CC(=O)O)C(=O)N[C@@H](C)C(=O)N[C@@H](CCC(=O)O)C(=O)N[C@@H](CCC(=O)O)C(=O)N[C@@H](CC(=O)O)C(=O)N[C@@H](CC(=O)O)C(=O)N[C@@H](CO)C(=O)N[C@@H](CC(=O)O)C(=O)N[C@H](C(=O)N[C@@H](Cc1c[nH]c2ccccc12)C(=O)N[C@@H](Cc1c[nH]c2ccccc12)C(=O)NCC(N)=O)C(C)C` [Peptide 11] (Ac-DSADAEEDDSDVWWG-NH2), the Ki reads like this: (AJAP-1probe, read-out: Ki) 5000 nM; under setting [2], 5030 ± 171 nM.

Turning to `CC(=O)N[C@@H](CO)C(=O)N[C@@H](C)C(=O)N[C@@H](CC(=O)O)C(=O)N[C@@H](C)C(=O)N[C@@H](CCC(=O)O)C(=O)N[C@@H](CCC(=O)O)C(=O)N[C@@H](CC(=O)O)C(=O)N[C@@H](CC(=O)O)C(=O)N[C@@H](CO)C(=O)N[C@@H](CC(=O)O)C(=O)N[C@H](C(=O)N[C@@H](Cc1c[nH]c2ccccc12)C(=O)N[C@@H](Cc1c[nH]c2ccccc12)C(=O)NCC(=O)NCC(N)=O)C(C)C` [Peptide 12] (Ac-SADAEEDDSDVWWGG-NH2), the Ki is 1300 nM (AJAP-1probe, read-out: Ki) and 1300 ± 28 nM under setting [2].

For `CC(=O)N[C@@H](CCC(=O)O)C(=O)N[C@@H](CC(=O)O)C(=O)N[C@@H](CC(=O)O)C(=O)N[C@@H](CO)C(=O)N[C@@H](CC(=O)O)C(=O)N[C@H](C(=O)N[C@@H](Cc1c[nH]c2ccccc12)C(=O)N[C@@H](Cc1c[nH]c2ccccc12)C(=O)NCC(=O)NCC(=O)N[C@@H](C)C(=O)N[C@@H](CC(=O)O)C(=O)N[C@H](C(=O)N[C@@H](CC(=O)O)C(=O)N[C@@H](Cc1ccc(O)cc1)C(N)=O)[C@@H](C)O)C(C)C` [Peptide 13] (Ac-EDDSDVWWGGADTDY-NH2), under setting [3], the Ki was 581 nM.

Turning to `CC[C@H](C)[C@H](NC(=O)[C@H](C)NC(=O)[C@H](Cc1c[nH]c2ccccc12)NC(=O)[C@@H]1CCCN1C(C)=O)C(=O)N[C@H](C(=O)N[C@@H](Cc1c[nH]c2ccccc12)C(=O)NCC(=O)N1CCC[C@H]1C(=O)N[C@H](C(=O)N[C@H](C(=O)N[C@@H](CO)C(=O)N[C@@H](CCCNC(=N)N)C(=O)N[C@@H](CCC(=O)O)C(=O)N[C@@H](CC(=O)O)C(=O)NCC(N)=O)C(C)C)[C@@H](C)O)C(C)C` [Peptide 14] (Ac-PWAIVWGPTVSREDG-NH2), the Ki under setting [3] is 465 nM.

For `CC[C@H](C)[C@H](NC(=O)[C@H](Cc1ccccc1)NC(=O)[C@H](CCC(=O)O)NC(=O)[C@@H](NC(=O)[C@H](CCC(=O)O)NC(=O)[C@@H](NC(C)=O)[C@@H](C)O)[C@@H](C)O)C(=O)N[C@@H](C)C(=O)N[C@@H](Cc1c[nH]c2ccccc12)C(=O)NCC(=O)N1CCC[C@H]1C(=O)N[C@H](C(=O)NCC(=O)N[C@@H](CC(=O)O)C(=O)N[C@@H](CCC(=O)O)C(=O)N[C@@H](CC(=O)O)C(N)=O)[C@@H](C)O` [Peptide 15, Ac-TETEFIAWGPTGDED-NH2] (Ac-TETEFIAWGPTGDED-NH2), the Ki is, setting by setting: (Table 5, elongation and truncation scan of AJAP-1 binding epitope, read-out: Ki (nM) mean ± SEM) 26 ± 0.3 nM; under setting [3], 23 nM.

As for `CC[C@H](C)[C@H](NC(=O)[C@H](Cc1c[nH]c2ccccc12)NC(=O)[C@H](CC(=O)O)NC(=O)[C@H](CC(=O)O)NC(=O)[C@H](CC(=O)O)NC(=O)[C@H](CCC(=O)O)NC(C)=O)C(=O)N[C@@H](CC(=O)O)C(=O)N[C@@H](Cc1c[nH]c2ccccc12)C(=O)N[C@@H](Cc1ccc(O)cc1)C(=O)N[C@@H](CC(=O)O)C(=O)N[C@@H](CO)C(=O)N[C@@H](CC(=O)O)C(=O)N[C@@H](CC(=O)O)C(=O)N[C@@H](CC(=O)O)C(=O)NCC(=O)NCC(=O)NCC(=O)NCC(=O)N[C@@H](CO)C(=O)N[C@@H](CCCNC(=N)N)C(=O)N[C@@H](CCCNC(=N)N)C(=O)N[C@@H](CCCNC(=N)N)C(=O)N[C@@H](CCCNC(=N)N)C(=O)N[C@@H](CCCNC(=N)N)C(=O)N[C@@H](CCCNC(=N)N)C(=O)N[C@@H](CCCNC(=N)N)C(=O)N[C@@H](CCCNC(=N)N)C(N)=O` [Peptide 16-FL-R8] (Ac-EDDDWIDWYDSDDDGGGGSRRRRRRRR-NH2), the Ki under setting [4] is 118 ± 3 nM and the Ki under setting [1] was 118 ± 3 nM.

Consider `CC[C@H](C)[C@H](NC(=O)[C@H](Cc1c[nH]c2ccccc12)NC(=O)[C@H](CC(=O)O)NC(=O)[C@H](CC(=O)O)NC(=O)[C@H](CC(=O)O)NC(=O)[C@H](CCC(=O)O)NC(C)=O)C(=O)N[C@@H](CC(=O)O)C(=O)N[C@@H](Cc1c[nH]c2ccccc12)C(=O)N[C@@H](Cc1ccc(O)cc1)C(=O)N[C@@H](CC(=O)O)C(=O)N[C@@H](CO)C(=O)N[C@@H](CC(=O)O)C(=O)N[C@@H](CC(=O)O)C(=O)N[C@@H](CC(=O)O)C(=O)N[C@@H](CCCNC(=N)N)C(=O)N[C@@H](CCCNC(=N)N)C(=O)N[C@@H](CCCNC(=N)N)C(=O)N[C@@H](CCCNC(=N)N)C(=O)N[C@@H](CCCNC(=N)N)C(=O)N[C@@H](CCCNC(=N)N)C(=O)N[C@@H](CCCNC(=N)N)C(=O)N[C@@H](CCCNC(=N)N)C(N)=O` [Peptide 16-R8] (Ac-EDDDWIDWYDSDDDRRRRRRRR-NH2), for which the Ki is, setting by setting: under setting [4], 65 ± 1 nM; under setting [1], 65.3 ± 1 nM.

Values taken from US20260193293A1, “PEPTIDES CAPABLE OF INHIBITING PROTEIN-PROTEIN INTERACTIONS AT GABAB1A SUBUNIT AND USES THEREOF” (UNIVERSITY OF COPENHAGEN, priority 2022, published 2026).
